The data set can be described thus: Lethal dose to rats was determined. It is filed as toxicity. The note with it: rat, in vivo.

We go through two compounds from ChEMBL document CHEMBL1129183, “Correlation of oxidation potential and toxicity in thiobenzamides” (Bioorg Med Chem Lett, 1996).

`COc1ccc(C(N)=S)cc1` had a Dose of 2 mM/kg.

`Cc1ccc(C(N)=S)cc1` had a Dose of 2 mM/kg.
